# pIC50: −log10 of the molar value.
# Assays:
# full length human TREX1 = target: T1, full length human TREX1 (Homo sapiens, UniProt Q9NSU2); experiment: hTREX1 Biochemical Assay (fluorescence, dsDNA substrate degradation); conditions: biochemical, read-out: hTREX1 IC50
# T1 construct: N-terminally His-Tev tagged full length human TREX1; made in house; host or cells: E. coli
# T1 sequence (Q9NSU2 1-314): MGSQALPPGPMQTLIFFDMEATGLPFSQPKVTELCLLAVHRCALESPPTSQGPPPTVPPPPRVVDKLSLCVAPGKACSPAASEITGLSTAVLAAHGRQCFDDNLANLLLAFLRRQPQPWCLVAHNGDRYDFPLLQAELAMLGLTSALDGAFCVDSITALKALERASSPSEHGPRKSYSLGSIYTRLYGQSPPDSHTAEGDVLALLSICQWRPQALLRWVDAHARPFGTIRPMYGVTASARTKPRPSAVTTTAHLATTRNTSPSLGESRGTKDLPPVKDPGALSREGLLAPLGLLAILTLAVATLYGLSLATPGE
# Procedure, shortened: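 Cleavage of 60 nM TEX615/quencher-labelled dsDNA in pH 7.4 Tris buffer with 5 mM MgCl2, 1.0% DMSO, run 18 hours at 25° C, EDTA-quenched; fluorescence read-out.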
# full length mouse TREX1 = target: T2, full length mouse TREX1 (Mus musculus, UniProt Q91XB0); experiment: mTREX1 Biochemical Assay (fluorescence, dsDNA substrate degradation); conditions: biochemical, read-out: mTREX1 IC50
# T2 construct: N-terminally His-Tev tagged full length mouse TREX1; made in house; host or cells: E. coli
# T2 sequence (Q91XB0 1-314): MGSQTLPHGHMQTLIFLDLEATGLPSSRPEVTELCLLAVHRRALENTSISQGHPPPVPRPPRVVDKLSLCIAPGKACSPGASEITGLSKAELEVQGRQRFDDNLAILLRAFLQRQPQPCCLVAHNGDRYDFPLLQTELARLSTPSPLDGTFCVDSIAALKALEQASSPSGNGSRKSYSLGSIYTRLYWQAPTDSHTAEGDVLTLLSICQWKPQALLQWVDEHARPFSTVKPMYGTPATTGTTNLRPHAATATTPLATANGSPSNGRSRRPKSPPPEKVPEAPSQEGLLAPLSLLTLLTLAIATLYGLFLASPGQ
# Procedure, shortened: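 Reaction run 18 h at 25° C. with 60 nM TEX615/quencher-labelled dsDNA and 6 pM mouse TREX1 in Tris buffer (pH 7.4, 5 mM MgCl2, 1.0% DMSO), enzyme having sat 4 h with compound across 10 concentrations. EDTA quench; substrate degradation measured as fluorescence increase.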
# [1] = target: T3, human TREX2 (residues M44-A279) (Homo sapiens, UniProt Q9BQ50); experiment: hTREX2 Biochemical Assay (fluorescence, dsDNA substrate degradation); conditions: biochemical selectivity for hTREX1 vs hTREX2
# T3 construct: human TREX2 (residues M44-A279, expressed in E. coli); made in house; host or cells: E. coli
# T3 sequence (Q9BQ50 44-279 isoform Q9BQ50-1): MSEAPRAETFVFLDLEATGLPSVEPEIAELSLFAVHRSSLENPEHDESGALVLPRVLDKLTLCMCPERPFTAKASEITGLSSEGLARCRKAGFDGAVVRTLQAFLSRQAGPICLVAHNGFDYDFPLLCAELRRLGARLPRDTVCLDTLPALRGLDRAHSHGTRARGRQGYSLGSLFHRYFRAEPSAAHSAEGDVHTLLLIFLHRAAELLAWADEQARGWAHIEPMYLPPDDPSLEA
# Procedure, shortened: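 N-His-Tev E. coli enzyme (50 pM) pre-incubated with compound 4 h at 25 °C, then 60 nM TEX615/quencher dsDNA added; 18 h at 25 °C, pH 7.4 Tris buffer with 5 mM MgCl2, 1.0% DMSO. EDTA-quenched; fluorescence 570 ex/615 em from liberated fluorophore, 10-point dose-response.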
# hTREX1 = target: T4, hTREX1 (Homo sapiens, UniProt Q9NSU2); experiment: hTREX1 HCT116 Cell Assay (HCT116 dual cells, Lucia luciferase reporter of Type I interferon induction); assay type: cell-based; conditions: TREX1i 4 h before pBR322/BstNI transfection, read after 48 h
# T4 construct: host or cells: HCT116 dual cells
# T4 sequence (Q9NSU2 1-314): T1 sequence (Q9NSU2 1-314)
# Source text: HCT116 dual cells (Invivogen, San Diego, CA, USA) are derived from the human HCT116 colorectal carcinoma cell line. Cells have been selected for the stable integration of SEAP and Luciferase reporter genes, which expression is under the control of 5 tandem response elements for NF-KB/AP1 and STAT1/STAT2, respectively. The cell line was used to monitor Type I interferon induction and subsequent signaling by measuring the activity of the Lucia luciferase secreted in the culture medium.
# HCT116 cells were plated in 96-well plate(s) at 40,000 cells/well in 100 uL DMEM supplemented with 10% FBS and 25 mM Hepes (pH 7.2-7.5). After overnight settling, cells were treated with TREX1i for 4 h (maximum DMSO fraction was 0.1%) before 1 ug/mL pBR322/BstNI restriction digest (New England Biolabs, Ipswich, MA, USA) was transfected with Lipofectamine LTX (ThermoFisher, Grand Island, NY, USA), according to product manual recommendations. Briefly, Lipofectamine LTX (0.35 uL/well) was diluted in OptiMEM (5 uL/well). pBR322/BstNI (100 ng/well) was diluted in OptiMEM (5 uL/well) before Plus reagent (0.1 uL/100 ng DNA) was added. After 5 min incubation at room temperature, the DNA mixture was mixed dropwise with the diluted Lipofectamine LTX. After an additional 10 min incubation, the transfection mix (10 uL/well) was added to the cells. Cells were maintained at 37 C for 48 h before monitoring the Lucia Luciferase activity from the cell culture medium.
SMILES,pIC50 (full length human TREX1),pIC50 (full length mouse TREX1),hTREX1 vs hTREX2 selectivity [1],pIC50 (hTREX1)
"CC(c1nc(C(=O)Nc2cnoc2)c(O)c(=O)n1C)C(c1ccccc1C#N)c1cn(C)nc1C#N (single isomer, unassigned) [Example 10 D2E1]",> 9.00,8.00 to 9.00,C (C = >50 fold selective for hTREX1),> 8.00
"CC(c1nc(C(=O)Nc2cnoc2)c(O)c(=O)n1C)C(c1cnn(C)c1)c1ccc(C(=O)N(C)C)cc1C#N (single isomer, unassigned) [Example 11 D1E1]",> 9.00,> 9.00,B (B = 25 to 50-fold selective for hTREX1),< 7.00
"CC(c1nc(C(=O)Nc2cnoc2)c(O)c(=O)n1C)C(c1cn[nH]c1)c1ccccc1C#N (single isomer, unassigned) [Example 12 D1E1]",> 9.00,8.00 to 9.00,C (C = >50 fold selective for hTREX1),7.00 to 8.00
"CC(c1nc(C(=O)Nc2cnoc2)c(O)c(=O)n1C)C(c1cn[nH]c1)c1ccccc1C#N (single isomer, unassigned) [Example 12 D2E1]",8.00 to 9.00,< 8.00,C (C = >50 fold selective for hTREX1),< 7.00
"CCn1cc(C(c2ccccc2C#N)C(C)c2nc(C(=O)Nc3cnoc3)c(O)c(=O)n2C)cn1 (single isomer, unassigned) [Example 13 D2E1]",8.00 to 9.00,< 8.00,B (B = 25 to 50-fold selective for hTREX1),< 7.00
"CC(c1nc(C(=O)Nc2cnoc2)c(O)c(=O)n1C)C(c1cnn(C)c1)c1ccc(F)cc1C#N (single isomer, unassigned) [Example 15 D1E1]",> 9.00,8.00 to 9.00,C (C = >50 fold selective for hTREX1),> 8.00
"CC(c1nc(C(=O)Nc2cnoc2)c(O)c(=O)n1C)C(c1cnn(CCN2CCOCC2)c1)c1ccccc1C#N (single isomer, unassigned) [Example 20 D1E1]",> 9.00,8.00 to 9.00,C (C = >50 fold selective for hTREX1),7.00 to 8.00
"CC(c1nc(C(=O)Nc2cnoc2)c(O)c(=O)n1C)C(c1cnn(CCN2CCN(C(=O)OC(C)(C)C)CC2)c1)c1ccccc1C#N (single isomer, unassigned) [Example 21 D1E1]",> 9.00,8.00 to 9.00,C (C = >50 fold selective for hTREX1),7.00 to 8.00
"COCCCn1cc(C(c2ccccc2C#N)C(C)c2nc(C(=O)Nc3cnoc3)c(O)c(=O)n2C)cn1 (single isomer, unassigned) [Example 24 D1E1]",> 9.00,> 9.00,C (C = >50 fold selective for hTREX1),> 8.00
"CC(c1nc(C(=O)Nc2cnoc2)c(O)c(=O)n1C)C(c1cnn(C)c1)c1cc(F)c(F)cc1C#N (single isomer, unassigned) [Example 25 D1E1]",> 9.00,8.00 to 9.00,C (C = >50 fold selective for hTREX1),> 8.00
"CC(c1nc(C(=O)Nc2cnoc2)c(O)c(=O)n1C)C(c1cnn(C)c1)c1ccc(Cl)cc1C#N (single isomer, unassigned) [Example 27 D1E1]",> 9.00,> 9.00,C (C = >50 fold selective for hTREX1),> 8.00
"CC(c1nc(C(=O)Nc2cnoc2)c(O)c(=O)n1C)C(c1cnn(C)c1)c1cc(C(F)(F)F)ccc1C#N (single isomer, unassigned) [Example 29 D1E1]",> 9.00,8.00 to 9.00,C (C = >50 fold selective for hTREX1),> 8.00
"CC(c1nc(C(=O)Nc2cnoc2)c(O)c(=O)n1C)C(c1cnn(C)c1)c1ccc(C(F)(F)F)cc1C#N (single isomer, unassigned) [Example 30 D1E1]",> 9.00,> 9.00,C (C = >50 fold selective for hTREX1),> 8.00
"CC(c1nc(C(=O)Nc2cnoc2)c(O)c(=O)n1C)C(c1cnn(CCN(C)C)c1)c1ccccc1C#N (single isomer, unassigned) [Example 33 D1E1]",8.00 to 9.00,8.00 to 9.00,C (C = >50 fold selective for hTREX1),< 7.00
"CC(c1nc(C(=O)Nc2cnoc2)c(O)c(=O)n1C)C(c1cnn(CCO)c1)c1ccccc1C#N (single isomer, unassigned) [Example 35 D1E1]",> 9.00,8.00 to 9.00,C (C = >50 fold selective for hTREX1),< 7.00
"Cn1cc(C(c2ccccc2C#N)C(c2nc(C(=O)Nc3cnoc3)c(O)c(=O)n2C)C(F)(F)F)cn1 (single isomer, unassigned) [Example 40 D1E2]",> 9.00,8.00 to 9.00,B (B = 25 to 50-fold selective for hTREX1),< 7.00
"Cc1nn(C)cc1C(c1ccccc1C#N)C(c1nc(C(=O)Nc2cnoc2)c(O)c(=O)n1C)C(F)(F)F (single isomer, unassigned) [Example 41 D1E2]",> 9.00,8.00 to 9.00,C (C = >50 fold selective for hTREX1),> 8.00
"Cc1nn(C)cc1C(c1cc(F)ccc1C#N)C(c1nc(C(=O)Nc2cnoc2)c(O)c(=O)n1C)C(F)(F)F (single isomer, unassigned) [Example 42 D1E2]",> 9.00,8.00 to 9.00,C (C = >50 fold selective for hTREX1),7.00 to 8.00
"Cc1ncc(C(c2ccccc2Cl)C(C)c2nc(C(=O)Nc3cnoc3)c(O)c(=O)n2C)cn1 (single isomer, unassigned) [Example 44 D1E2]",8.00 to 9.00,8.00 to 9.00,B (B = 25 to 50-fold selective for hTREX1),7.00 to 8.00
"CC(c1nc(C(=O)Nc2cnoc2)c(O)c(=O)n1C)C(c1ccccc1Cl)n1cccn1 (single isomer, unassigned) [Example 45 D1E1]",8.00 to 9.00,< 8.00,B (B = 25 to 50-fold selective for hTREX1),< 7.00
"Cc1nn(C)cc1C(c1cc(F)ccc1C#N)C(C)c1nc(C(=O)Nc2cnoc2)c(O)c(=O)n1C (single isomer, unassigned) [Example 57 D1E1]",8.00 to 9.00,< 8.00,C (C = >50 fold selective for hTREX1),7.00 to 8.00

# Reference: patent publication US20240246946A1, “MODULATORS OF TREX1” (Constellation Pharmaceuticals, Inc., priority 2021, published 2024)
